Assay results published in patent US20240247035A1, “STAPLED ANTIMICROBIAL PEPTIDES (STAMPS) AND USES THEREOF” (Lytica Therapeutics, Inc., priority 2021, published 2024).
≈ marks a conversion by molar mass, not a printed value. Bridge positions count the residues as written; N and C are the ends. Square brackets hold non-standard residues; d marks the D form. Peptide text beside a SMILES is read from it. Phe(4-tBu) = CC(C)(C)c1ccc(C[C@H](N)C(=O)O)cc1; S5 = C=CCCC[C@](C)(N)C(=O)O; Orn = NCCC[C@H](N)C(=O)O; Dab = NCC[C@H](N)C(=O)O; Dap = NC[C@H](N)C(=O)O

Key:
[1] = 90 minute cytotoxicity assay (LDH release), renal toxicity; assay type: cell-based; conditions: human
Procedure: (§1) Cell culture: RPTEC were maintained in MEM media supplemented with growth factors. HEPG2 cell line was maintained in Eagle's Minimum Essential Medium (EMEM) supplemented with fetal bovine serum to a final concentration of 10%.
90 minute cytotoxicity assay: Cells were plated in a 96-well format, and after overnight incubation, media was replaced with fresh media. Serial dilutions of StAMPs from a 5 mg/mL water stock, or vehicle, were added to the cells in a final volume of 100 μl. After incubating at 37° C. for 90 min, 50 μl of cell culture media was transferred to a clear 96-well plate, incubated with 50 μl of lactate dehydrogenase (LDH) assay reagent for 10 min, and absorbance measured at 490 nm on a microplate reader.
(§2) Renal toxicity was measured after 90 minutes of incubation, while liver toxicity was measured after 48 hours of incubation with StAMPs. N/A=not tested.

[2] = 48 hours cytotoxicity assay (CellTiter-Glo), liver toxicity; assay type: cell-based; conditions: human
Procedure: as §1
48 hours cytotoxicity assay: Cells were plated in a 96-well format, and after 4 hour incubation to allow attachment, serial dilutions of StAMPs from a 5 mg/mL water stock, or vehicle, were then added to the cells in a final volume of 100 μl. After incubating at 37° C. for 48 hours, 100 μl of CellTiter-Glo® reagent was added to the cells, and the plates were incubated 10 minutes at room temperature. Luminescence was then measured on a microplate reader.
as §2

| SMILES | IC50 at 90 min [1] [µg/mL] | IC50 at 48 hours [2] [µg/mL] |
| --- | --- | --- |
| CC[C@H](C)[C@@H]1NC(=O)[C@@](C)(NC(=O)[C@H](CC(C)C)NC(=O)[C@H](CC(N)=O)NC(=O)[C@H](CCCCN)NC(=O)[C@H](CC(C)C)NC(=O)[C@H](CCCCN)NC(=O)[C@H](CCCCN)NC(=O)CNC(=O)[C@H](C)NC(=O)[C@]2(C)CCCC=CCCC[C@](C)(NC(=O)CN)C(=O)N[C@@H](CCCCN)C(=O)N[C@@H](CO)C(=O)N[C@@H](CCCCN)C(=O)N2)CCCC=CCCC[C@@](C)(C(=O)N[C@@H](CCCCN)C(=O)NCC(N)=O)NC(=O)CNC(=O)[C@H](CO)NC1=O [compound 12] (H-G[S5]KSK[S5]AGKKLKNL[S5]ISG[S5]KG-NH2; staple 2-6, 15-19) | > 200 | 91 (≈ 41.1 µM) |
| CC[C@H](C)[C@@H]1NC(=O)[C@@](C)(NC(=O)[C@H](CC(C)C)NC(=O)[C@H](CC(N)=O)NC(=O)[C@H](CCCCN)NC(=O)[C@H](CC(C)C)NC(=O)[C@H](CCCCN)NC(=O)[C@H](CCCCN)NC(=O)CNC(=O)[C@H](C)NC(=O)[C@]2(C)CCCC=CCCC[C@](C)(NC(=O)CN)C(=O)N[C@@H](Cc3ccccc3)C(=O)N[C@@H](CO)C(=O)N[C@@H](CCCCN)C(=O)N2)CCCC=CCCC[C@@](C)(C(=O)N[C@@H](CCCCN)C(=O)N[C@@H](CC(N)=O)C(N)=O)NC(=O)CNC(=O)[C@H](CO)NC1=O [compound 13] (H-G[S5]FSK[S5]AGKKLKNL[S5]ISG[S5]KN-NH2; staple 2-6, 15-19) | 17 (≈ 7.42 µM) | 210 (≈ 91.7 µM) |
| CC[C@H](C)[C@H](NC(=O)[C@H](CCN)NC(=O)[C@H](CCN)NC(=O)CNC(=O)[C@H](CCN)NC(=O)[C@]1(C)CCCC=CCCC[C@](C)(NC(=O)CN)C(=O)N[C@@H](Cc2ccccc2)C(=O)N[C@@H](CO)C(=O)N[C@@H](CCN)C(=O)N1)C(=O)N[C@@H](CCN)C(=O)N[C@@H](CC(N)=O)C(=O)N[C@@H](CC(C)C)C(=O)N[C@@]1(C)CCCC=CCCC[C@@](C)(C(=O)N[C@@H](CCN)C(=O)NCC(N)=O)NC(=O)CNC(=O)[C@H](CO)NC(=O)[C@H]([C@@H](C)CC)NC1=O [compound 14] (H-G[S5]FS[Dab][S5][Dab]G[Dab][Dab]I[Dab]NL[S5]ISG[S5][Dab]G-NH2; staple 2-6, 15-19) | 40 (≈ 18.9 µM) | ~150 (≈ 70.7 µM) |
| CC[C@H](C)[C@H](NC(=O)[C@H](CCCN)NC(=O)[C@H](CCCN)NC(=O)CNC(=O)[C@H](CCCN)NC(=O)[C@]1(C)CCCC=CCCC[C@](C)(NC(=O)CN)C(=O)N[C@@H](Cc2ccccc2)C(=O)N[C@@H](CO)C(=O)N[C@@H](CCCN)C(=O)N1)C(=O)N[C@@H](CCCN)C(=O)N[C@@H](CC(N)=O)C(=O)N[C@@H](CC(C)C)C(=O)N[C@@]1(C)CCCC=CCCC[C@@](C)(C(=O)N[C@@H](CCCN)C(=O)NCC(N)=O)NC(=O)CNC(=O)[C@H](CO)NC(=O)[C@H]([C@@H](C)CC)NC1=O [compound 15] (H-G[S5]FS[Orn][S5][Orn]G[Orn][Orn]I[Orn]NL[S5]ISG[S5][Orn]G-NH2; staple 2-6, 15-19) | 25 (≈ 11.3 µM) | ~100 (≈ 45.3 µM) |
| CC[C@H](C)[C@H](NC(=O)[C@H](CN)NC(=O)[C@H](CN)NC(=O)CNC(=O)[C@H](CN)NC(=O)[C@]1(C)CCCC=CCCC[C@](C)(NC(=O)CN)C(=O)N[C@@H](Cc2ccccc2)C(=O)N[C@@H](CO)C(=O)N[C@@H](CN)C(=O)N1)C(=O)N[C@@H](CN)C(=O)N[C@@H](CC(N)=O)C(=O)N[C@@H](CC(C)C)C(=O)N[C@@]1(C)CCCC=CCCC[C@@](C)(C(=O)N[C@@H](CN)C(=O)NCC(N)=O)NC(=O)CNC(=O)[C@H](CO)NC(=O)[C@H]([C@@H](C)CC)NC1=O [compound 16] (H-G[S5]FS[Dap][S5][Dap]G[Dap][Dap]I[Dap]NL[S5]ISG[S5][Dap]G-NH2; staple 2-6, 15-19) | > 200 | ~200 (≈ 98.2 µM) |
| CC[C@H](C)[C@H](NC(=O)[C@H](CCCCN)NC(=O)[C@H](CCCCN)NC(=O)CNC(=O)[C@H](CCCCN)NC(=O)[C@]1(C)CCCC=CCCC[C@](C)(NC(=O)CN)C(=O)N[C@@H](CCCCN)C(=O)N[C@@H](CO)C(=O)N[C@@H](CCCCN)C(=O)N1)C(=O)N[C@@H](CCCCN)C(=O)N[C@@H](CC(N)=O)C(=O)N[C@@H](CC(C)C)C(=O)N[C@@]1(C)CCCC=CCCC[C@@](C)(C(=O)N[C@@H](CCCCN)C(=O)N[C@@H](CC(N)=O)C(N)=O)NC(=O)CNC(=O)[C@H](CO)NC(=O)[C@H]([C@@H](C)CC)NC1=O [compound 17] (H-G[S5]KSK[S5]KGKKIKNL[S5]ISG[S5]KN-NH2; staple 2-6, 15-19) | 325 (≈ 140 µM) | 172 (≈ 73.9 µM) |
| CC[C@H](C)[C@H](NC(=O)[C@H](CCCCN)NC(=O)[C@H](CCCCN)NC(=O)CNC(=O)[C@H](CCCCN)NC(=O)[C@]1(C)CCCC=CCCC[C@](C)(NC(=O)CN)C(=O)N[C@@H](CCCCN)C(=O)N[C@@H](CO)C(=O)N[C@@H](CCCCN)C(=O)N1)C(=O)N[C@@H](CCCCN)C(=O)N[C@@H](CC(N)=O)C(=O)N[C@@H](Cc1ccc(C(C)(C)C)cc1)C(=O)N[C@@]1(C)CCCC=CCCC[C@@](C)(C(=O)N[C@@H](CCCCN)C(=O)N[C@@H](CC(N)=O)C(N)=O)NC(=O)CNC(=O)[C@H](CO)NC(=O)[C@H]([C@@H](C)CC)NC1=O [compound 19] (H-G[S5]KSK[S5]KGKKIKN[Phe(4-tBu)][S5]ISG[S5]KN-NH2; staple 2-6, 15-19) | 68 (≈ 28.1 µM) | 23 (≈ 9.51 µM) |
| CC[C@H](C)[C@H](NC(=O)[C@H](CCCCN)NC(=O)[C@H](CCCCN)NC(=O)CNC(=O)[C@H](CCCCN)NC(=O)[C@]1(C)CCCC=CCCC[C@](C)(NC(=O)CN)C(=O)N[C@@H](CCCCN)C(=O)N[C@@H](CO)C(=O)N[C@@H](CCCCN)C(=O)N1)C(=O)N[C@@H](CCCCN)C(=O)N[C@@H](CC(N)=O)C(=O)N[C@@H](CC(C)C)C(=O)N[C@@]1(C)CCCC=CCCC[C@@](C)(C(=O)N[C@@H](CCCCN)C(=O)N[C@@H](CC(N)=O)C(N)=O)NC(=O)CNC(=O)[C@H](CO)NC(=O)[C@H](Cc2ccc(C(C)(C)C)cc2)NC1=O [compound 20] (H-G[S5]KSK[S5]KGKKIKNL[S5][Phe(4-tBu)]SG[S5]KN-NH2; staple 2-6, 15-19) | 46 (≈ 19 µM) | 29 (≈ 12 µM) |
| CC[C@H](C)[C@H](NC(=O)[C@H](CCCCN)NC(=O)[C@H](CCCCN)NC(=O)CNC(=O)[C@H](CCCCN)NC(=O)[C@]1(C)CCCC=CCCC[C@](C)(NC(=O)CN)C(=O)N[C@@H](CCCCN)C(=O)N[C@@H](CO)C(=O)N[C@@H](CCCCN)C(=O)N1)C(=O)N[C@@H](CCCCN)C(=O)N[C@@H](CC(N)=O)C(=O)N[C@@H](CC(C)C)C(=O)N[C@@]1(C)CCCC=CCCC[C@@](C)(C(=O)N[C@@H](CCCCN)C(=O)N[C@@H](CC(N)=O)C(N)=O)NC(=O)[C@H](C(C)C)NC(=O)[C@H](CO)NC(=O)[C@H]([C@@H](C)CC)NC1=O [compound 21] (H-G[S5]KSK[S5]KGKKIKNL[S5]ISV[S5]KN-NH2; staple 2-6, 15-19) | 54 (≈ 22.8 µM) | 32 (≈ 13.5 µM) |
| CC[C@H](C)[C@H](NC(=O)[C@H](CCCCN)NC(=O)[C@H](CCCCN)NC(=O)CNC(=O)[C@H](CCCCN)NC(=O)[C@]1(C)CCCC=CCCC[C@](C)(NC(=O)CN)C(=O)N[C@@H](CCCCN)C(=O)N[C@@H](CO)C(=O)N[C@@H](CCCCN)C(=O)N1)C(=O)N[C@@H](CCCCN)C(=O)N[C@@H](CC(N)=O)C(=O)N[C@@H](CC(C)C)C(=O)N[C@@]1(C)CCCC=CCCC[C@@](C)(C(=O)N[C@@H](CCCCN)C(=O)N[C@@H](CC(N)=O)C(N)=O)NC(=O)[C@H](Cc2ccccc2)NC(=O)[C@H](CO)NC(=O)[C@H]([C@@H](C)CC)NC1=O [compound 22] (H-G[S5]KSK[S5]KGKKIKNL[S5]ISF[S5]KN-NH2; staple 2-6, 15-19) | 16 (≈ 6.62 µM) | 67 (≈ 27.7 µM) |
| CC[C@H](C)[C@H](NC(=O)[C@H](CCCCN)NC(=O)[C@H](CCCCN)NC(=O)CNC(=O)[C@H](CCCCN)NC(=O)[C@]1(C)CCCC=CCCC[C@](C)(NC(=O)CN)C(=O)N[C@@H](CCCCN)C(=O)N[C@@H](CO)C(=O)N[C@@H](CCCCN)C(=O)N1)C(=O)N[C@@H](CCCCN)C(=O)N[C@@H](CC(N)=O)C(=O)N[C@@H](CC(C)C)C(=O)N[C@@]1(C)CCCC=CCCC[C@@](C)(C(=O)N[C@@H](CCCCN)C(=O)N[C@@H](CC(N)=O)C(=O)N[C@@H](CCC(=O)O)C(N)=O)NC(=O)[C@H](Cc2ccccc2)NC(=O)[C@H](CO)NC(=O)[C@H]([C@@H](C)CC)NC1=O [compound 23] (H-G[S5]KSK[S5]KGKKIKNL[S5]ISF[S5]KNE-NH2; staple 2-6, 15-19) | 62 (≈ 24.3 µM) | 53 (≈ 20.8 µM) |
| CC[C@H](C)[C@H](NC(=O)[C@H](CCCCN)NC(=O)[C@H](CCCCN)NC(=O)CNC(=O)[C@H](CCCCN)NC(=O)[C@]1(C)CCCC=CCCC[C@](C)(NC(=O)CN)C(=O)N[C@@H](CCCCN)C(=O)N[C@@H](CO)C(=O)N[C@@H](CCCCN)C(=O)N1)C(=O)N[C@@H](CCCCN)C(=O)N[C@@H](CC(N)=O)C(=O)N[C@@H](CC(C)C)C(=O)N[C@@]1(C)CCCC=CCCC[C@@](C)(C(=O)N[C@@H](CCCCN)C(=O)N[C@@H](CC(N)=O)C(=O)NCC(=O)NCC(=O)NCC(=O)N[C@@H](CCC(=O)O)C(N)=O)NC(=O)[C@H](Cc2ccccc2)NC(=O)[C@H](CO)NC(=O)[C@H]([C@@H](C)CC)NC1=O [compound 24] (H-G[S5]KSK[S5]KGKKIKNL[S5]ISF[S5]KNGGGE-NH2; staple 2-6, 15-19) | 112 (≈ 41.2 µM) | 16 (≈ 5.89 µM) |
